For assay [1], the system named is Mycolicibacterium smegmatis. Briefly: Activity of Mycobacterial smegmatis-galactosyltransferase after 1 hr.
Assay [2] relates to Mycolicibacterium smegmatis. Put plainly: Activity of Mycobacterial smegmatis-arabinosyltransferase after 1 hr.

As for `CN(C)c1cccc2c(S(=O)(=O)NCCO[C@@H]3O[C@@H](C[C@H](CO)O[C@@H]4O[C@@H]([C@@H](O)CO)[C@H](O)[C@H]4O)[C@H](O)[C@H]3O)cccc12`, in assay [1], the Michaelis-Menten constant (Km) is 7330 µM.

With `CN(C)c1cccc2c(S(=O)(=O)NCCO[C@@H]3O[C@@H]([C@@H](O)CO[C@@H]4O[C@@H]([C@@H](O)CO)[C@H](O)[C@H]4O)[C@H](O)[C@H]3O)cccc12`, the Michaelis constant (Km) in assay [1] was 2380 µM.

Consider `[N-]=[N+]=Nc1cccc2c(S(=O)(=O)NCCO[C@@H]3O[C@@H](C[C@H](CO)OC4O[C@@H]([C@@H](O)CO)[C@H](O)[C@H]4O)[C@H](O)[C@H]3O)cccc12` (stereo partly specified), for which the Michaelis constant (Km) in assay [1] was 2770 µM.

Consider `[N-]=[N+]=Nc1cccc2c(S(=O)(=O)NCCO[C@@H]3O[C@@H]([C@@H](O)CO[C@@H]4O[C@@H]([C@@H](O)CO)[C@H](O)[C@H]4O)[C@H](O)[C@H]3O)cccc12`, for which the Km in assay [1] came out at 1980 µM.

As to `CN(C)c1cccc2c(S(=O)(=O)NCCO[C@H]3O[C@H](CO[C@H]4O[C@H](CO)[C@@H](O)[C@@H]4O)[C@@H](O)[C@@H]3O)cccc12`, in assay [2], the Michaelis constant (Km) worked out at 680 µM.

Regarding `[N-]=[N+]=Nc1cccc2c(S(=O)(=O)NCCO[C@H]3O[C@H](CO[C@H]4O[C@H](CO)[C@@H](O)[C@@H]4O)[C@@H](O)[C@@H]3O)cccc12`, in assay [2], the Km came to 3070 µM.

The values are drawn from ChEMBL document CHEMBL1149604, “Disaccharide analogs as probes for glycosyltransferases in Mycobacterium tuberculosis” (Bioorg Med Chem, 2007).
